Laboratory results published in ChEMBL document CHEMBL3992486 (Medchemcomm, 2016).
Values after ≈ are worked out from the molar mass of the structure shown.

Tests used:
[1] = system: Mycobacterium tuberculosis; test: Antimycobacterial activity against dormant Mycobacterium bovis BCG ATCC 35743 after 12 days by neutral red dye based two-fold dilution method; format: functional; conditions: BCG str. ATCC 35743, 288 h
[2] = Selectivity index, ratio of GI50 for human MCF7 cells to MIC for dormant Mycobacterium tuberculosis H37Ra ATCC 25177; format: toxicity; conditions: pooled result: one value given for 3 cell lines, strains, targets or settings, read-out: Selectivity Index
[3] = Selectivity index, ratio of GI50 for human MCF7 cells to MIC for dormant Mycobacterium bovis BCG ATCC 35743; format: toxicity; conditions: pooled result: one value given for 3 cell lines, strains, targets or settings, read-out: Selectivity Index
[4] = system: Mycobacterium tuberculosis; test: Antimycobacterial activity against dormant Mycobacterium tuberculosis H37Ra ATCC 25177 after 12 days by XTT dye based two-fold dilution method; format: functional; conditions: H37Ra ATCC 25177, 288 h
[5] = Cytotoxicity against human MCF7 cells by MTT assay; format: cell-based
[6] = Cytotoxicity against human A549 cells by MTT assay; format: cell-based

O=C(NN1C(=O)CSC1c1cc2ccccc2n2nnnc12)c1ccncc1 (centres undefined)
MIC [1]: 430 µM (≈ 168 µg/mL) | selectivity ratio [2]: 18.9 | selectivity ratio [3]: 588

Cc1ccc2c(c1)cc(C1SCC(=O)N1NC(=O)c1ccncc1)c1nnnn12 (centres undefined)
MIC [4]: 2140 µM (≈ 868 µg/mL) | MIC [1]: 8430 µM (≈ 3420 µg/mL) | selectivity ratio [2]: 115 | selectivity ratio [3]: 29.2

CC(=O)O[C@H]1C(=O)[C@@]2(C)[C@H]([C@H](OC(=O)c3ccccc3)[C@]3(O)C[C@H](OC(=O)[C@H](O)[C@@H](NC(=O)c4ccccc4)c4ccccc4)C(C)=C1C3(C)C)[C@]1(OC(C)=O)CO[C@@H]1C[C@@H]2O [PACLITAXEL]
GI50 [5]: 87 µM | GI50 [6]: 80 µM

COc1ccc2cc(C3SCC(=O)N3NC(=O)c3ccncc3)c3nnnn3c2c1 (centres undefined)
MIC [4]: 1660 µM (≈ 700 µg/mL) | MIC [1]: 360 µM (≈ 152 µg/mL) | selectivity ratio [2]: 143 | selectivity ratio [3]: 667

COc1ccc2c(c1)cc(C1SCC(=O)N1NC(=O)c1ccncc1)c1nnnn12 (centres undefined)
MIC [4]: 990 µM (≈ 417 µg/mL) | MIC [1]: 140 µM (≈ 59 µg/mL) | selectivity ratio [2]: 238 | selectivity ratio [3]: 11.8

Cc1cccc2cc(C3SCC(=O)N3NC(=O)c3ccncc3)c3nnnn3c12 (centres undefined)
MIC [4]: 1770 µM (≈ 718 µg/mL) | MIC [1]: 510 µM (≈ 207 µg/mL) | selectivity ratio [2]: 139 | selectivity ratio [3]: 476

CO[C@H]1/C=C/O[C@@]2(C)Oc3c(C)c(O)c4c(O)c(c(/C=N/N5CCN(C)CC5)c(O)c4c3C2=O)NC(=O)/C(C)=C\C=C\[C@H](C)[C@H](O)[C@@H](C)[C@@H](O)[C@@H](C)[C@H](OC(C)=O)[C@@H]1C [RIFAMPIN]
MIC [4]: 24 µM (≈ 19.8 µg/mL) | MIC [1]: 21 µM (≈ 17.3 µg/mL) | selectivity ratio [2]: > 5000 | selectivity ratio [3]: 1750

Cc1ccc2cc(C3SCC(=O)N3NC(=O)c3ccncc3)c3nnnn3c2c1 (centres undefined)
MIC [4]: 2610 µM (≈ 1060 µg/mL) | MIC [1]: 300 µM (≈ 122 µg/mL) | selectivity ratio [2]: 94.3 | selectivity ratio [3]: 833
